In patent US11993610B2, “BCL-2 inhibitors” (Newave Pharmaceutical Inc., priority 2017, dated 2024):
pIC50: −log10 of the molar value. Where two headings read alike, the source gives them in different places.

Tests used:
[1] = test system: BCL-2-dependent acute lymphoblastic leukemia RS4; 11 xenograft model; assay: In vivo RS4; 11 xenograft study; design: species or system CB.17 SCID mice; conditions: for BW Nadir / Tumor volume: po
Excerpt: The CB.17 SCID mice were obtained at age 6-8 weeks from vendors and acclimated for a minimum 7-day period. The cancer cells were then implanted into the […] mice. Depending on the specific tumor type, tumors were typically detectable about two weeks following implantation. When tumor sizes reached ˜100-200 mm^3, the animals with appreciable tumor size and shape were randomly assigned into groups of 8 mice each, including one vehicle control group and treatment groups. Dosing varies depending on the purpose and length of each study, which typically proceeded for about 3-4 weeks. Tumor sizes and body weight were typically measured three times per week. In addition to the determination of tumor size changes, the last tumor measurement was used to generate the tumor size change ratio (T/C value), a standard metric developed by the National Cancer Institute for xenograft tumor evaluation. In most cases, % T/C values were calculated using the following formula: % T/C=100×ΔT/ΔC if ΔT>0. When tumor regression occurred (ΔT<0), however, the following formula was used: % T/T0=100×ΔT/T0.

RS4; 11 = assay: In vitro anti-proliferation assay (ATPlite) in BCL-2-dependent ALL cell line RS4; 11; type: cell-based
Experimental: Cell antiproliferation was assayed by PerkinElmer ATPlite™ Luminescence Assay System. Briefly, the various test cancer cell lines were plated at a density of about 1×10^4 cells per well in Costar 96-well plates, and were incubated with different concentrations of compounds for about 72 hours in medium supplemented with 5% FBS or 10% normal human serum (NHS). One lyophilized substrate solution vial was then reconstituted by adding 5 mL of substrate buffer solution, and was agitated gently until the solution is homogeneous. About 50 μL of mammalian cell lysis solution was added to 100 μL of cell suspension per well of a microplate, and the plate was shaken for about five minutes in an orbital shaker at ˜700 rpm. This procedure was used to lyse the cells and to stabilize the ATP. Next, 50 μL substrate solution was added to the wells and microplate was shaken for five minutes in an orbital shaker at ˜700 rpm. Finally, the luminescence was measured by a PerkinElmer TopCount® Microplate Scintillation Counter. Such assays, carried out with a range of doses of test compounds, allowed the determination of the cellular anti-antiproliferative IC50 of the compounds of the present invention.

H345 xenograft model = conditions: 100 mg/kg/day; cited from earlier work
[2] = test system: xenograft models of small-cell lung cancer and acute lymphoblastic leukemia; conditions: oral administration, alone; cited from earlier work
circulating platelets = conditions: clinical trial; cited from earlier work
[3] = cited from earlier work
Mice PK study = type: in vivo; conditions: po, 10 mg/kg, CD-1 mouse; for AUC / half-life / bioavailability: plasma; for half-life: read-out: t½ (converted); for bioavailability: read-out: Bioavailabilty
Experimental: The pharmacokinetics of compounds were evaluated in CD-1 mouse via Intravenous and Oral Administration. The IV dose was administered as a slow bolus in the Jugular vein, and oral doses were administered by gavage. The formulation for IV dosing is 5% DMSO in 20% HPBCD in water, and the PO formulation is 2.5% DMSO, 10% EtOH, 20% Cremphor EL, 67.5% D5W. The PK time point for the IV arm was 5, 15, 30 min, 1, 2, 4, 6, 8, 12, 24 hours post dose, and for PO arm was 15, 30 min, 1, 2, 4, 6, 8, 12, 24 hours post dose. Approximately 0.03 mL blood was collected at each time point. Blood of each sample was transferred into plastic micro centrifuge tubes containing EDTA-K2 and plasma was collected within 15 min by centrifugation at 4000 g for 5 minutes in a 4′C centrifuge. Plasma samples were stored in polypropylene tubes. The samples were stored in a freezer at −75±15° C. prior to analysis. Concentrations of compounds in the plasma samples were analyzed using a LC-MS/MS method. WinNonlin (Phoenix™, version 6.1) or other similar software was used for pharmacokinetic calculations. The following pharmacokinetic parameters were calculated, whenever possible from the plasma concentration versus time data: IV administration: C0, CL, Vd, T1/2, AUCinf, AUClast, MRT, Number of Points for Regression; PO administration: Cmax, Tmax, T1/2, AUCinf, AUClast, F %, Number of Points for Regression. The pharmacokinetic data was described using descriptive statistics such as mean, standard deviation. Additional pharmacokinetic or statistical analysis was performed at the discretion of the contributing scientist, and was documented in the data summary.

[4] = Homo sapiens, RS4-11, 72 h, read-out: IC50, RS4, 11 5% FBS, about 72 hours, first study
[5] = Homo sapiens, RS4-11, 72 h, read-out: IC50, RS4, 11 5% FBS, about 72 hours, another study

Structure (SMILES): CC1(C)CCC(CN2CCN(c3ccc(C(=O)NS(=O)(=O)c4ccc(NCC5CCOCC5)c([N+](=O)[O-])c4)c(Oc4cnc5[nH]ccc5c4)c3)CC2)=C(c2ccc(Cl)cc2)C1 [ABT-199, reference compound]
- BW Nadir ([1]; 50 mg/kg, qd × 7): −3.60%
- Tumor volume ([1]; 50 mg/kg, qd × 7): 0 mm^3
- Tumor volume ([1]; 50 mg/kg, qd × 21): 17.4 mm^3
- pIC50 (RS4; 11; [4]): 8.26

Structure (SMILES): CC1(C)CCC(c2ccc(Cl)cc2)=C(CN2CCN(c3ccc(C(=O)NS(=O)(=O)c4ccc(N[C@H](CCN5CCOCC5)CSc5ccccc5)c(S(=O)(=O)C(F)(F)F)c4)cc3)CC2)C1 [ABT-263]
- TGI (H345 xenograft model): 80%
- treated tumors indicating at least a 50% reduction in tumor volume (H345 xenograft model): 20%
- tumor regressions [2]: complete tumor regressions
- number of circulating platelets (circulating platelets): rapid, concentration-dependent decrease in the number of circulating platelets

Structure (SMILES): CN(C)CC[C@H](CSc1ccccc1)Nc1ccc(S(=O)(=O)NC(=O)c2ccc(N3CCN(Cc4ccccc4-c4ccc(Cl)cc4)CC3)cc2)cc1[N+](=O)[O-] [ABT-737]
- aqueous solubility [3]: low

Structure (SMILES): CC1(C)CCC(CN2CCN(c3ccc(C(=O)NS(=O)(=O)c4ccc(NCC5CCOCC5)c([N+](=O)[O-])c4)c(N4CCOc5nc6[nH]ccc6cc54)c3)CC2)=C(c2ccc(Cl)cc2)C1 [Example 2 (NW-4-8), 4-(4-[[2-(4-chlorophenyl)-4,4-dimethylcyclohex-1-en-1-yl]methyl]piperazin-1-yl)-N-([3-nitro-4-[(oxan-4-ylmethyl)amino]benzene]sulfonyl)-2-[13-oxa-2,4,10-triazatricyclo[7.4.0.0^[3,7]]trideca-1,3(7),5,8-tetraen-10-yl]benzamide]
- AUC(h * ng/mL) (Mice PK study): 10,365 h * ng/mL
- Bioavailabilty (Mice PK study): 68%
- t½ (Mice PK study): 2.7 h
- pIC50 (RS4; 11; read-out: IC50, RS4, 11 5% FBS, about 72 hours, first study): 8.32

Structure (SMILES): CC1(C)CCC(CN2CCN(c3ccc(C(=O)NS(=O)(=O)c4ccc(NCC5(F)CCOCC5)c([N+](=O)[O-])c4)c(N4CCOc5nc6[nH]ccc6cc54)c3)CC2)=C(c2ccc(Cl)cc2)C1 [Example 3, 4-(4-((4′-chloro-5,5-dimethyl-3,4,5,6-tetrahydro-[1,1′-biphenyl]-2-yl)methyl)piperazin-1-yl)-2-(2,3-dihydropyrrolo[3′,2′:5,6]pyrido[2,3-b][1,4]oxazin-1(6H)-yl)-N-((4-(((4-fluorotetrahydro-2H-pyran-4-yl)methyl)amino)-3-nitrophenyl)sulfonyl)benzamide]
- BW Nadir ([1]; 25 mg/kg, qd × 7): −3.60%
- Tumor volume ([1]; 25 mg/kg, qd × 7): 368 mm^3
- BW Nadir ([1]; 50 mg/kg, qd × 7): −2.90%
- Tumor volume ([1]; 50 mg/kg, qd × 7): 26 mm^3
- tumor regression ([1]; 100 mg/kg, day 18): complete regression of the tumor
- BW Nadir ([1]; 100 mg/kg, qd × 7): −2.10%
- Tumor volume ([1]; 100 mg/kg, qd × 7): 0 mm^3
- effect on tumor growth ([1]; 7 doses (qd × 7), 25-100 mg/kg po): dose-dependent reduction of tumor growth
- pIC50 (RS4; 11; [5]): 8.85
- pIC50 (RS4; 11; [4]): 8.59

Structure (SMILES): C[C@@H]1CN(c2cc(N3CCN(CC4=C(c5ccc(Cl)cc5)CC(C)(C)CC4)CC3)ccc2C(=O)NS(=O)(=O)c2ccc(NCC3(F)CCOCC3)c([N+](=O)[O-])c2)c2cc3cc[nH]c3nc2O1 [Example 6 (R), (R)-4-(4-((4′-chloro-5,5-dimethyl-3,4,5,6-tetrahydro-[1,1′-biphenyl]-2-yl)methyl)piperazin-1-yl)-N-((4-(((4-fluorotetrahydro-2H-pyran-4-yl)methyl)amino)-3-nitrophenyl)sulfonyl)-2-(3-methyl-2,3-dihydropyrrolo[3′,2′:5,6]pyrido[2,3-b][1,4]oxazin-1(6H)-yl)benzamide]
- AUC (Mice PK study): 16100 ng·h/mL
- half-life (Mice PK study): 3.2 h
- pIC50 (RS4; 11; [5]): 8.89

Structure (SMILES): C[C@H]1CN(c2cc(N3CCN(CC4=C(c5ccc(Cl)cc5)CC(C)(C)CC4)CC3)ccc2C(=O)NS(=O)(=O)c2ccc(NCC3(F)CCOCC3)c([N+](=O)[O-])c2)c2cc3cc[nH]c3nc2O1 [Example 6 (S), (S)-4-(4-((4′-chloro-5,5-dimethyl-3,4,5,6-tetrahydro-[1,1′-biphenyl]-2-yl)methyl)piperazin-1-yl)-N-((4-(((4-fluorotetrahydro-2H-pyran-4-yl)methyl)amino)-3-nitrophenyl)sulfonyl)-2-(3-methyl-2,3-dihydropyrrolo[3′,2′:5,6]pyrido[2,3-b][1,4]oxazin-1(6H)-yl)benzamide]
- AUC (Mice PK study): 12100 ng·h/mL
- bioavailability (Mice PK study): 74%
- pIC50 (RS4; 11; [5]): 8.49

Structure (SMILES): CC1(C)CCC(CN2CCN(c3ccc(C(=O)NS(=O)(=O)c4ccc(NCC5(F)CCOCC5)c([N+](=O)[O-])c4)c(N4CC(C)(C)Oc5nc6[nH]ccc6cc54)c3)CC2)=C(c2ccc(Cl)cc2)C1 [Example 7, 4-(4-((4′-chloro-5,5-dimethyl-3,4,5,6-tetrahydro-[1,1′-biphenyl]-2-yl)methyl)piperazin-1-yl)-2-(3,3-dimethyl-2,3-dihydropyrrolo[3′,2′:5,6]pyrido[2,3-b][1,4]oxazin-1(6H)-yl)-N-((4-(((4-fluorotetrahydro-2H-pyran-4-yl)methyl)amino)-3-nitrophenyl)sulfonyl)benzamide]
- AUC (Mice PK study): 11000 ng·h/mL
- bioavailability (Mice PK study): 90%
- half-life (Mice PK study): 3.2 h
- pIC50 (RS4; 11; [5]): 8.25

Structure (SMILES): C[C@H]1CN(c2cc(N3CCN(CC4=C(c5ccc(Cl)cc5)CC(C)(C)CC4)CC3)ccc2C(=O)NS(=O)(=O)c2ccc(NCC3CCOCC3)c([N+](=O)[O-])c2)c2cc3cc[nH]c3nc2O1 [Example 9, (S)-4-(4-((4′-chloro-5,5-dimethyl-3,4,5,6-tetrahydro-[1,1′-biphenyl]-2-yl)methyl)piperazin-1-yl)-2-(3-methyl-2,3-dihydropyrrolo[3′,2′:5,6]pyrido[2,3-b][1,4]oxazin-1(6H)-yl)-N-((3-nitro-4-(((tetrahydro-2H-pyran-4-yl)methyl)amino)phenyl)sulfonyl)benzamide]
- AUC (Mice PK study): 19900 ng·h/mL
- half-life (Mice PK study): 4.1 h

Structure (SMILES): C[C@@H]1CN(c2cc(N3CCN(CC4=C(c5ccc(Cl)cc5)CC(C)(C)CC4)CC3)ccc2C(=O)NS(=O)(=O)c2ccc(NCC3CCOCC3)c([N+](=O)[O-])c2)c2cc3cc[nH]c3nc2O1 [Example 10, (R)-4-(4-((4′-chloro-5,5-dimethyl-3,4,5,6-tetrahydro-[1,1′-biphenyl]-2-yl)methyl)piperazin-1-yl)-2-(3-methyl-2,3-dihydropyrrolo[3′,2′:5,6]pyrido[2,3-b][1,4]oxazin-1(6H)-yl)-N-((3-nitro-4-(((tetrahydro-2H-pyran-4-yl)methyl)amino)phenyl)sulfonyl)benzamide]
- AUC (Mice PK study): 35000 ng·h/mL
- bioavailability (Mice PK study): 78%
- half-life (Mice PK study): 4.1 h
